Assay results published in US10645928B2, “Pesticidally active polycyclic derivatives with sulfur containing substituents” (Syngenta Participations AG, priority 2014, dated 2020).

Tests used:
Format in all cases: in vivo
[1] = system: Spodoptera littoralis (Egyptian Cotton Leaf Worm); test: Example B18: Spodoptera littoralis, compound in agar absorbed by lettuce roots, mortality, anti-feedant effect and growth inhibition; conditions: 144 h, test rate of 12.5 ppm, uptake by lettuce roots, Spodoptera eggs, 6 days after infestation, read-out: effect in at least one of the three categories (mortality, anti-feeding, or growth inhibition)
Method in brief: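 Compound from 10,000 ppm DMSO stock mixed into agar; lettuce seeds grew 7 days, taking compound up via roots into the lid plate. Cut leaves infested with Spodoptera eggs; mortality, anti-feedant effect and growth inhibition scored against untreated samples 6 days after infestation.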

[2] = system: Euschistus heros (Neotropical Brown Stink Bug); test: Example B6: Euschistus heros, sprayed soybean leaves, mortality and growth inhibition; conditions: 120 h, application rate of 200 ppm, N2 nymphs, 5 days after infestation, read-out: effect in at least one of the two categories (mortality or growth inhibition)
Protocol: Soybean leaves on agar in 24-well microtiter plates were sprayed with aqueous test solutions prepared from 10,000 ppm DMSO stock solutions. After drying the leaves were infested with N2 nymphs. The samples were assessed for mortality and growth inhibition in comparison to untreated samples 5 days after infestation.

[3] = system: Plutella xylostella (Diamond Back Moth); test: Example B12: Plutella xylostella, treated artificial diet, mortality; conditions: 120 h, application rate of 200 ppm, L2 larvae, 5 days after infestation
Protocol: 24-well microtiter plates with artificial diet were treated with aqueous test solutions prepared from 10,000 ppm DMSO stock solutions by pipetting. After drying, the plates were infested with L2 larvae (10 to 15 per well). The samples were assessed for mortality 5 days after infestation.

[4] = system: Thrips tabaci (Onion Thrips); test: Example B22: Thrips tabaci, sprayed sunflower leaf discs, mortality; conditions: foliar, 144 h, application rate of 200 ppm, thrips population of mixed ages, 6 days after infestation
Protocol: Sunflower leaf discs were placed on agar in 24-well microtiter plates and sprayed with aqueous test solutions prepared from 10,000 ppm DMSO stock solutions. After drying the leaf discs were infested with a thrips population of mixed ages. The samples were assessed for mortality 6 days after infestation.

[5] = system: Bemisia tabaci (Cotton White Fly); test: Example B1: Bemisia tabaci, sprayed cotton leaf discs, mortality; conditions: foliar, 144 h, application rate of 200 ppm, adult white flies, 6 days after incubation
Protocol: Cotton leaf discs were placed on agar in 24-well microtiter plates and sprayed with aqueous test solutions prepared from 10,000 ppm DMSO stock solutions. After drying the leaf discs were infested with adult white flies. The samples were checked for mortality 6 days after incubation.

[6] = system: Aedes aegypti (Yellow Fever Mosquito); test: Example B23: Aedes aegypti, dry deposits in 12 well tissue culture plates, control; conditions: application rate of 200 ppm in ethanol, adult females, after 48 h and/or 24 h
Protocol: Test solutions, at an application rate of 200 ppm in ethanol, were applied to 12 well tissue culture plates. Once the deposits were dry, five, two to five day old adult female Aedes aegypti were added to each well, and sustained with a 10% sucrose solution in a cotton wool plug. Assessment of knockdown was made one hour after introduction, and mortality was assessed at 24 and 48 hours after introduction.

CCS(=O)(=O)c1cc(C(C#N)CCBr)cnc1-c1cn2cnc(C(F)(F)F)cc2n1 (stereo not drawn) [Compound P13, 4-bromo-2-[5-ethylsulfonyl-6-[7-(trifluoromethyl)imidazo[1,2-c]pyrimidin-2-yl]-3-pyridyl]butanenitrile]
≥ 80%: percent effect (mortality, anti-feeding or growth inhibition) at 12.5 ppm [1] | percent effect (mortality or growth inhibition) at 200 ppm [2] | mortality at 200 ppm [3] | mortality at 200 ppm [4] | mortality at 200 ppm [5] | pest or weed control at 200 ppm [6]
